This is an account of results in patent US7939286B2, “Enhancing a luminescent signal” (Targeting Systems, priority 2005, dated 2011).

The target of one assay is T1, Renilla luciferase (Renilla reniformis, UniProt P27652).
T1 construct: purchased Prolume/NanoLight Technologies, Pinetop, Ariz
T1 sequence (P27652 1-311): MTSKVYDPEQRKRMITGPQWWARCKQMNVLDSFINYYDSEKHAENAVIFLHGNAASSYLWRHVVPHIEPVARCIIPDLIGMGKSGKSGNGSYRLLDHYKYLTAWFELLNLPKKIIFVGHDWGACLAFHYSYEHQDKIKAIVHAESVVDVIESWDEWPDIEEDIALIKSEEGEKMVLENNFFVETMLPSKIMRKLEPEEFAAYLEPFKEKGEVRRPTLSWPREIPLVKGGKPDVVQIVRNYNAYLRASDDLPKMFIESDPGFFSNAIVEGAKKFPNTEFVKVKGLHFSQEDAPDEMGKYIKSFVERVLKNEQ
Nature of the assay: Bioluminescence of Renilla luciferase in assay buffer (luminometer). It is filed as biochemical. Particulars: for Renilla luciferase bioluminescence t = 0 / Renilla luciferase bioluminescence t = 20: 1.3 μM substrate in 0.5xPBS, 0.025% NP40; for Renilla luciferase bioluminescence t = 0: t = 0 minutes; for Renilla luciferase bioluminescence t = 20: t = 20 minutes; for effect on magnitude (M at t = 1-2 minutes) of bioluminescent signal, Bacterial Rluc / effect on stability (S at time = 7-10 minutes) of bioluminescent signal, Bacterial Rluc: comparison: 1% EDTA to 0%, 0.2% NP40 to 0.025% or 0%, 4 μM coel. to 1.3 μM, 4 μM benzyl coel. to 1.3 μM; for effect of 0.2% detergent on Renilla luciferase activity (FIG. 7): 0.2% v/v detergent, T=0 and T=18 minutes; for stability of the luminescent signal in the presence of different detergents: 0.2% and 0.02% detergent. An excerpt:
Renilla luciferase is commercially available from Prolume/NanoLight Technologies, Pinetop, Ariz. Recombinant bacterial Gaussia luciferase was obtained from Prolume/Nanolight Technologies, Pinetop, Ariz.

In assay [1] the test system is Gaussia luciferase secreted from mammalian cells. Nature of the assay: Bioluminescence of mammalian-secreted Gaussia luciferase in assay buffer (luminometer).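 For all read-outs here: mammalian cell culture supernatants containing secreted Gaussia luciferase were combined with coelenterazine assay buffer and light emission was read on a luminometer.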 Conditions: for Gaussia luciferase (mammalian) bioluminescence t = 0 / Gaussia luciferase (mammalian) bioluminescence t = 10: 1.3 μM substrate in 0.5xPBS; for Gaussia luciferase (mammalian) bioluminescence t = 0: t = 0 minutes; for Gaussia luciferase (mammalian) bioluminescence t = 10: t = 10 minutes; for effect on magnitude (M at t = 1-2 minutes) of bioluminescent signal, Mammalian Gluc / effect on stability (S at time = 7-10 minutes) of bioluminescent signal, Mammalian Gluc: comparison: 1% EDTA to 0%, 0.2% NP40 to 0.025% or 0%, 4 μM coel. to 1.3 μM, 4 μM benzyl coel. to 1.3 μM; for RLU: zero time; for effect on magnitude (M) of bioluminescent signal, Mammalian Gluc: NaCl conc. 0.075M compared to 0.5M; for bioluminescence T = 0 / bioluminescence T = 15 / bioluminescence T = 45: 0.2% detergent final concentration in 0.5×PBS; for bioluminescence T = 0 / bioluminescence T = 15 / bioluminescence T = 45 / stability of the luminescent signal in the presence of different detergents: 1.3 μM coelenterazine; for bioluminescence T = 0: T = 0 minutes; for bioluminescence T = 15: T = 15 minutes; for bioluminescence T = 45: T = 45 minutes; for stability of the luminescent signal in the presence of different detergents: 0.2% and 0.02% detergent, no EDTA, read again after 15 minutes.
Description: Reagents used in the examples include: PBS (Amresco, Solon, Ohio), PBS with Ca/Mg/K (Invitrogen, Carlsbad, Calif.), Igepal CA-630 referred to throughout as NP40 (Sigma Aldrich, St. Louis, Mo.), Standard Renilla assay reagent (Promega, Madison, Wis.), coelenterazine and benzyl coelenterazzine (Prolume/NanoLight Technologies, Pinetop, Ariz.), expression vector for Gaussia luciferase in mammals (New England Biolabs, Inc., Ipswich, Mass.), Dulbecco's minimal essential medium (DMEM) (Invitrogen, Carlsbad, Calif.) used for diluting mammalian and bacterial expressed Gaussia luciferase. Measurements of bioluminescence were carried out with a luminometer (Turner TD2020 luminometer, Turner BioSystems, Sunnyvale, Calif.).
An amount of this coelenterazine solution was added to the assay buffer to a final concentration in the range of I-10 μM. 50 μl of the assay buffer was mixed with 20 μl of sample containing luciferase and bioluminescence was measured using a luminometer.
In this example, 20 μl of mammalian Gaussia luciferase samples (cell supernatants) were mixed with 8 μl of the indicated detergents at 2% and 0.2% concentration (final concentration of detergents in assay solution was 0.2% and 0.02%) and 50 μl of the Gaussia luciferase assay reagent (0.5×PBS, no EDTA, 1.3 μM coelenterazine) and read in a Turner TD2020 Luminometer, Turner BioSystems, Sunnyvale, Calif. The samples were read again after 15 minutes to evaluate the stability of the luminescent signal in the presence of different detergents.

The subject of assay [2] is purified recombinant bacterial Gaussia luciferase. Put plainly: Bioluminescence of recombinant bacterial Gaussia luciferase in assay buffer (luminometer). It is filed as biochemical, Gaussia princeps. Particulars: for Gaussia luciferase (bacterial) bioluminescence t = 0 / Gaussia luciferase (bacterial) bioluminescence t = 10: 1.3 μM substrate in 0.5xPBS; for Gaussia luciferase (bacterial) bioluminescence t = 0: t = 0 minutes; for Gaussia luciferase (bacterial) bioluminescence t = 10: t = 10 minutes; for effect on magnitude (M at t = 1-2 minutes) of bioluminescent signal, bacterial Gluc / effect on stability (S at time = 7-10 minutes) of bioluminescent signal, bacterial Gluc: comparison: 1% EDTA to 0%, 0.2% NP40 to 0.025% or 0%, 4 μM coel. to 1.3 μM, 4 μM benzyl coel. to 1.3 μM. Here is the method: Renilla luciferase is commercially available from Prolume/NanoLight Technologies, Pinetop, Ariz. Recombinant bacterial Gaussia luciferase was obtained from Prolume/Nanolight Technologies, Pinetop, Ariz. […] An amount of powdered bacterial Gaussia luciferase obtained from Nanolight Technologies, Pinetop, Ariz., was dissolved in DMEM and diluted in control assay buffer until a reading could be obtained from a luminometer.

A further assay concerns the target Firefly luciferase (Photinus pyralis, UniProt P08659). Put plainly: Summary of effect on bioluminescent signal of firefly luciferase. It is filed as biochemical.
[3] abbreviates: 1.3 μM substrate, 0.5×PBS, 1% EDTA, 0.025% NP40, compared with 1.3 μM coelenterazine.

Values joined by “and” are separate entries in the source; they are usually repeats but may differ in a detail not shown here. Identical values can stand only once.

Sequence of Firefly luciferase (P08659 whole entry): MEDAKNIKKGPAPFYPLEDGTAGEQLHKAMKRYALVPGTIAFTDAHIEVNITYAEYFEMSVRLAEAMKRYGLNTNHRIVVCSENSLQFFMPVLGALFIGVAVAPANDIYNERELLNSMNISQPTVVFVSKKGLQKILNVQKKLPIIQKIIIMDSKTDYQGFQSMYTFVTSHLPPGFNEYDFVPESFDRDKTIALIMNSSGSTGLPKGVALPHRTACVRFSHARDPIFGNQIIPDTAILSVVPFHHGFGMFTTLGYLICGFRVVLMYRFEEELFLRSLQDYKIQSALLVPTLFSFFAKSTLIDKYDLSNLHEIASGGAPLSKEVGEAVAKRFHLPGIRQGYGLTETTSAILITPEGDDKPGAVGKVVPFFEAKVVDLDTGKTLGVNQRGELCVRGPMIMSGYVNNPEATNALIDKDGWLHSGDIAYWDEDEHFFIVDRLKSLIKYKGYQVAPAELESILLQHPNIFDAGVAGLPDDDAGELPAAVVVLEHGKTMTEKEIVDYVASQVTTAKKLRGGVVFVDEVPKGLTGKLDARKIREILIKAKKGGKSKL

As for `Oc1ccc(Cc2nc3c(Cc4ccccc4)nc(-c4ccc(O)cc4)cn3c2O)cc1` [Coel., coelenterazine], on Renilla luciferase, the “Renilla luciferase bioluminescence t = 0” value was 2296 and 1790 and 2520; the “Renilla luciferase bioluminescence t = 20” value is 194 and 139 and 211; the “effect on magnitude (M at t = 1-2 minutes) of bioluminescent signal, Bacterial Rluc” value (shortened to “effect on magnitude … Bacterial Rluc”) is “M up”; the “effect on stability (S at time = 7-10 minutes) of bioluminescent signal, Bacterial Rluc” value (“effect on stability … Bacterial Rluc” below) was “S down”. In addition, in assay [1] (0.025% NP40), the “Gaussia luciferase (mammalian) bioluminescence t = 0” value was 594 and 565 and 556; the “Gaussia luciferase (mammalian) bioluminescence t = 10” value is 31 and 30 and 29. The “effect of coelenterazine concentrations greater than 4 μM on luciferase activity (FIG. 4A)” value in assay [1] (1.3-25 μM coelenterazine in 0.5×PBS, 1% EDTA, 0.025% NP40, zero time) is listed as “no significant increase in luciferase activity”. For the same compound, the “effect on magnitude (M at t = 1-2 minutes) of bioluminescent signal, Mammalian Gluc” value in assay [1] was “M up”. In assay [2] (0.025% NP40), the “Gaussia luciferase (bacterial) bioluminescence t = 0” value was 1630 and 1837 and 1903; the “Gaussia luciferase (bacterial) bioluminescence t = 10” value was 58 and 59 and 60. Moreover, the “effect of coelenterazine concentrations greater than 4 μM on luciferase activity (FIG. 4B)” value in assay [2] (1.3-25 μM coelenterazine) is listed as “no significant increases in luciferase activity”. Besides, the “effect on magnitude (M at t = 1-2 minutes) of bioluminescent signal, bacterial Gluc” value (from here on “effect on magnitude … bacterial Gluc”) in assay [2] was “M up”.

In the case of `O=C(O)CN(CCN(CC(=O)O)CC(=O)O)CC(=O)O` [EDTA], at Renilla luciferase, the “effect on magnitude … Bacterial Rluc” value is recorded as “M down” and the “effect on stability … Bacterial Rluc” value is listed as “S down”. In addition, in assay [1], the “effect on magnitude (M at t = 1-2 minutes) of bioluminescent signal, Mammalian Gluc” value is given as “M down” and the “effect on stability (S at time = 7-10 minutes) of bioluminescent signal, Mammalian Gluc” value (shortened to “effect on stability … Mammalian Gluc”) is listed as “S up”. Further, the “effect on magnitude … bacterial Gluc” value in assay [2] is recorded as “M down”. The “effect on magnitude (M at t = 1-2 minutes) of bioluminescent signal, Firefly” value on Firefly luciferase (1% EDTA compared to 0%) is “M down”.

`[Cl-].[Na+]` [NaCl, sodium chloride]: the RLU was 1322 RLU and 1350 RLU and 1242 RLU in assay [1] (0.175M NaCl in adjusted 0.5 × PBS + 1% EDTA + 0.025% NP40 + 1.3 μM coel.); 1364 RLU and 1252 RLU and 1204 RLU in assay [1] (0.275M NaCl in adjusted 0.5 × PBS + 1% EDTA + 0.025% NP40 + 1.3 μM coel.); 1129 RLU and 1098 RLU and 1246 RLU in assay [1] (0.375M NaCl in adjusted 0.5 × PBS + 1% EDTA + 0.025% NP40 + 1.3 μM coel.); 1212 RLU and 701 RLU in assay [1] (0.5M NaCl in adjusted 0.5 × PBS + 1.3 μM coel.); 1049 RLU and 1035 RLU and 1149 RLU in assay [1] (0.575M NaCl in adjusted 0.5 × PBS + 1% EDTA + 0.025% NP40 + 1.3 μM coel.); 760 RLU and 750 RLU in assay [1] (1M NaCl in adjusted 0.5 × PBS + 1.3 μM coel.). Moreover, the “effect on magnitude (M) of bioluminescent signal, Mammalian Gluc” value is reported as “M same + EDTA” in assay [1] (+ EDTA) and “M down” in assay [1] (−EDTA-NP40).

For the compound `CCCCCCCCCCCCOS(=O)(=O)[O-].[Na+]` [SDS, sodium dodecyl sulfate], in assay [1] (1% EDTA), the “bioluminescence T = 0” value is on record as 0 RLU, the “bioluminescence T = 15” value is 0 RLU and the “bioluminescence T = 45” value came out at 0 RLU.

Regarding `CCCCCCCC/C=C\CCCCCCCC(=O)OCCOCC(OCCO)C1OCC(OCCO)C1OCCO` (stereo not shown) [Tween80], the “effect of 0.2% detergent on Renilla luciferase activity (FIG. 7)” value (“effect of 0.2% detergent” below) on Renilla luciferase is on record as “stabilizing effect”. Also, in assay [1] (1% EDTA), the “bioluminescence T = 0” value turned out to be 128 RLU, the “bioluminescence T = 15” value is recorded as 101 RLU and the “bioluminescence T = 45” value is on record as 58 RLU.

Consider NP40, for which, on Renilla luciferase, the “stability of the luminescent signal in the presence of different detergents” value (“stability … of different detergents” below) was “optimum stability”; the “effect of 0.2% detergent” value is “stabilizing effect”; the “effect on magnitude … Bacterial Rluc” value is listed as “M down”; the “effect on stability … Bacterial Rluc” value is on record as “S up”. Further, in assay [1] (0.5×PBS), the “stability … of different detergents” value was “optimum stability”. Besides, in assay [1] (1% EDTA), the “bioluminescence T = 0” value worked out at 87 RLU, the “bioluminescence T = 15” value turned out to be 112 RLU and the “bioluminescence T = 45” value was 79 RLU. In addition, in assay [1], the “effect on magnitude (M at t = 1-2 minutes) of bioluminescent signal, Mammalian Gluc” value was “M down” and the “effect on stability … Mammalian Gluc” value is recorded as “S up”. Further, in assay [2], the “effect on magnitude … bacterial Gluc” value is “M down” and the “effect on stability (S at time = 7-10 minutes) of bioluminescent signal, bacterial Gluc” value is recorded as “S up”. Moreover, on Firefly luciferase (0.2% NP40 compared to 0.025% or 0%), the “effect on stability (S at time = 7-10 minutes) of bioluminescent signal, Firefly” value is on record as “S up”.

Consider Triton X-100, for which, on Renilla luciferase, the “stability … of different detergents” value is reported as “optimum stability” and the “effect of 0.2% detergent” value is listed as “stabilizing effect”. Also, in assay [1] (0.5×PBS), the “stability … of different detergents” value is “optimum stability”. In assay [1] (1% EDTA), the “bioluminescence T = 0” value stood at 59 RLU, the “bioluminescence T = 15” value turned out to be 80 RLU and the “bioluminescence T = 45” value is given as 63 RLU.

With benzyl coelenterazine [Benzyl Coel.], on Renilla luciferase, the “Renilla luciferase bioluminescence t = 0” value was 9036 and 7687 and 7955; the “Renilla luciferase bioluminescence t = 20” value is 2234 and 1944 and 1359; the “effect on magnitude … Bacterial Rluc” value is reported as “M up”; the “effect on stability … Bacterial Rluc” value is “S up”. Moreover, the “suitability as substrate (FIG. 9)” value on Renilla luciferase (1.3 μM substrate, 0.5×PBS, 0.025% NP40, 1% EDTA, compared with 1.3 μM coelenterazine) is on record as “good substrate”. In addition, in assay [1] (0.025% NP40), the “Gaussia luciferase (mammalian) bioluminescence t = 0” value was 34 and 30 and 31; the “Gaussia luciferase (mammalian) bioluminescence t = 10” value is 3.49 and 3.6 and 3.66. Moreover, in assay [1] (setting [3]), the “suitability as substrate (FIG. 8)” value is “poor substrate”. Moreover, in assay [1], the “effect on magnitude (M at t = 1-2 minutes) of bioluminescent signal, Mammalian Gluc” value was “M down” and the “effect on stability … Mammalian Gluc” value was “S down”. Moreover, in assay [2] (0.025% NP40), the “Gaussia luciferase (bacterial) bioluminescence t = 0” value is 81.75 and 83 and 84; the “Gaussia luciferase (bacterial) bioluminescence t = 10” value was 7.9 and 8.1. Also, the “suitability as substrate (FIG. 8)” value in assay [2] (setting [3]) is given as “poor substrate”. Further, in assay [2], the “effect on magnitude … bacterial Gluc” value is listed as “M down” and the “effect on stability (S at time = 7-10 minutes) of bioluminescent signal, bacterial Gluc” value is listed as “S down”.

In the case of deoxycholate [DOC], in assay [1] (1% EDTA), the “bioluminescence T = 0” value came to 4 RLU, the “bioluminescence T = 15” value was determined as 2 RLU and the “bioluminescence T = 45” value is 2 RLU.
